According to patent US20190000983A1, “AN EYE DROP SOLUTION FOR ENHANCED HYALURONIC ACID RETENTION AND DELIVERY” (THE JOHNS HOPKINS UNIVERSITY, priority 2015, published 2019):
Where two headings read alike, the source gives them in different places. Ends that are not written are not given here.

How the values were obtained:
[1] = test system: conjunctiva tissue; assay: HABA assay: screening of biotin-conjugated ocular surface-binding peptides on conjunctival tissue; parameters: species or system rabbit; conditions: six peptides of Table 1, biotin-conjugated, 1.0 mg/mL in PBS, 20 min, compared to control
Excerpt: Conjunctival tissue from the ocular surface was targeted to test the binding affinity of the multiple peptides. Conjunctiva was harvested from rabbit eyes (Pel-Freez Biologicals, Rogers, Ariz.) with the underlying tenon's capsule removed, and then cut into 6 mm pieces with a biopsy punch. The conjunctival epithelium was kept intact for testing SABpep, while the epithelium was scrapped off with a cell scraper for testing type I collagen-binding peptide (ColBpep). The tissue pieces were merged in the biotin-conjugated peptide solutions (1.0 mg/mL in PBS, pH 7.4; Life Technologies, NY) for 20 minutes and then washed three times with PBS to remove any unbound peptides. A HABA (4′-hydroxyazobenzene-2-carboxylic acid) assay (Life Technologies, NY) was used to measure the amount of bound peptide (biotin), per manufacturer's instructions. An aqueous solution of biotin (1.0 mg/mL) without peptides was used as a negative control.

[2] = test system: Rabbit conjunctival primary epithelial cells; assay: Live/dead staining and AlamarBlue cytotoxicity assessment; format: cell-based; conditions: 1.0 mg/ml, 24 h; data not shown
Procedure: Rabbit conjunctival primary epithelial cells were isolated as described previously in the main text. Cells were seeded in 96 well microplates for AlamarBlue assays (Life Technologies, NY) and live/dead staining at a density of 10,000 cells/cm^2. Cells were allowed to grow to about 90% confluence before experiments were carried out. Three different concentrations of HA-FL were tested: 1.0 mg/ml, 100 μg/ml and 10 μg/ml. SABpep and ColBpep were added to the medium for 24 h with a concentration of 1.0 mg/ml. Calcein AM and ethidium homodimer-1 (EthD-1; Life Technologies, NY) were used as live/dead staining agents according manufacture's manual, and cells were imaged using Zeiss Axio Imager 2 microscope. AlamarBlue assay was performed with quadruplets for every group. After 2 h incubation, the absorbance values at 570 nm on a Synergy 2 microplate reader were recorded.

[3] = test system: rabbit conjunctiva tissue sections (sialic acid on mucin-1; collagen type I); conditions: for localisation of peptide staining on conjunctiva sections: biotin-conjugated peptide 1.0 mg/ml, compared with anti-mucin-1 / anti-collagen type I antibody
Procedure: To visualize binding of SABpep and ColBpep to the ocular surface, we performed immunohistochemistry with biotin-conjugated peptides on tissue section of rabbit conjunctiva. Conjunctival tissue dissected from rabbit eyes were fixed with 4% paraformaldehyde (PFA) solution (Electron Microscopy Sciences, Hatfield, Pa.), embedded and sectioned (thickness-5 μm) in paraffin. The sections were first incubated with biotin-conjugated peptides (1.0 mg/ml in PBS pH 7.4) for 1 h at room temperature, washed thrice with PBS and then stained with streptavidin-Texas Red conjugate (Vector Laboratories, CA) in accordance to manufacturer's protocol. The samples were then washed again three times, mounted with DAPI mounting medium (Vector Laboratories) and imaged with Zeiss Axio Imager 2 microscope (Carl Zeiss, Jena, Germany). Sections stained with only secondary antibody served as negative control. Mouse anti-mucin-1 primary antibody (Novus Biologicals, Littleton, Colo.) and mouse anti-collagen type I antibody (Abcam, Cambridge, Mass.) were used as replacements to SABpep and ColBpep in the positive controls, respectively, and stained with goat anti-mouse IgG secondary antibody (Life Technologies, NY).
To examine if SABpep binds specifically to sialic acid segment on the oligosaccharide chains, paraffin embedded and 4% PFA fixed rabbit conjunctiva tissue sections were stained with three different groups were selected (SABpep, sialidase treated+SABpep, SA+SABpep). Sections in the first group were stained with SABpep as described in the main text; sections in the second group were treated with sialidase (α2-3,6,8 Neuraminidase, 60 U/ml; New England Biolabs, Ipswich, Mass.) first for one hour at 37° C. before the addition of SABpep; and finally, sections in the third group were stained with SABpep pre-incubated with sialic acid (N-Acetylneuraminic acid, 100 mM; Carbosynth, Compton, Berkshire, UK) for one hour at room temperature. The staining procedure was the same in all three groups (streptavidin-fluorescein was used for detecting biotin conjugated SABpep; DAPI was used as counterstain for nuclei). The sections were imaged using Zeiss Axio Imager 2 microscope.

Sequence	amount of peptide bound to conjunctiva tissue (normalized to the dry weight) [1]	amount of peptide bound to conjunctiva tissue (normalized to the dry weight) ([1]; listed as peptide 3)	cytotoxicity to epithelial cells [2]	localisation of peptide staining on conjunctiva sections ([3]; 1 h, listed as SABpep-biotin)	staining of epithelium after preincubation of peptide with sialic acid ([3]; sialic acid 100 mM, 1 h, room temperature)	binding to conjunctival epithelium after sialidase digestion of the section ([3]; sialidase 60 U/ml, 1 h at 37° C. before staining)	amount of peptide bound to conjunctiva tissue (normalized to the dry weight) ([1]; listed as peptide 6)	localisation of peptide staining on conjunctiva sections ([3]; 1 h, listed as ColBpep-biotin)
GGSPYGRC (also: biotin, position not given here) [SABpep]	the most promising candidates	bound the most	little to no cytotoxicity	binds selectively to epithelial lining of conjunctiva	still stained the epithelium	could not bind to conjunctival epithelium		
SYIRIADTNIT [ColBpep]	the most promising candidates		little to no cytotoxicity				bound the most	binds to any collagen I on the tissue
